Measured values taken from patent publication US10695355B2, “Methods for pharmacologic treatment of stroke” (University of Connecticut, priority 2017, dated 2020).

How the values were obtained:
[1] = test system: Middle Cerebral Artery occlusion (MCAo) model, male C57B/6 mice; assay: Neurological deficit (ND) score after MCAo stroke; assay type: in vivo
From the text: (§1) Middle cerebral artery occlusion and bilateral ovariectomy: We induced focal transient cerebral ischemia by a 60-minute right middle cerebral artery occlusion (MCAo) under isoflurane anesthesia followed by reperfusion for either 3, 15, or 30 days. […] The 15- and 30-day time points represent sub-acute and chronic recovery as discussed in the art. Briefly, we performed a midline ventral neck incision and unilateral right MCAo by advancing a 6.0 silicone rubber-coated monofilament (Doccol Corporation, CA) 10-11 mm from the internal carotid artery bifurcation via an external carotid artery stump. We monitored rectal temperatures with a temperature control system (Fine Science Tools, Canada), maintaining the temperature at approximately 37° C. during surgery with an automatic heating pad. We used laser doppler flowmetry (DRT 4/Moor Instruments Ltd, Devon, UK) to measure cerebral blood flow and to confirm occlusion (reduction to 15% of baseline cerebral blood flow) and reperfusion. All animals were fed with wet mash for one week after surgery to ensure adequate nutrition for chronic endpoints, as animals have rearing deficits after stroke. In sham mice, we performed identical surgeries except the suture was not advanced into the internal carotid artery. For the gonadal hormone-mediated outcome study, we ovariectomized (ovxed) female mice two weeks prior to stroke surgery.
Neurological deficit score: The neurological deficit (ND) score is a crude assessment of post-stroke behavioral recovery. We recorded ND scores, ranging from 0 to 4, at several time points after stroke. Our standard scoring system was as follows: 0, no deficit; 1, forelimb weakness and torso turning to the ipsilateral side when held by the tail; 2, circling to affected side; 3, unable to bear weight on affected side; and 4, no spontaneous locomotor activity or barrel rolling.
Male C57B/6 (2-3 month old; 22-28 g) mice were used in this experiment. The ischemia duration was 60 minutes, with reperfusion for 72 hours. […]

[2] = test system: Middle Cerebral Artery occlusion (MCAo) model, male C57B/6 mice; assay: Open field test (exploratory activity, anxiety-like behavior) after MCAo stroke; assay type: in vivo; conditions: first dose 4 hour after stroke, reperfusion 30 days
From the text: (§2) Sensory motor deficit test: We used the open field test (OFT) and rotarod test to measure spontaneous locomotor activity/anxiety-like behavior and motor balance coordination, respectively, at baseline and post-mcao days 2, 7, 14, 21, and 28. As the OFT is a non-stressful test, we performed the OFT prior to the rotarod test, on the same day with one hour difference between tests.
Open field test: The OFT is a common measure of exploratory behavior and general activity in rodents, which can be used both qualitatively and quantitatively. Briefly, we placed mice in a corner of a clear acrylic box (16″×16″) and allowed them to explore the box for ten minutes. We quantified locomotor activity as the total number of beam breaks by a computer-operated, open-field photobeam activity system (San Diego Instruments, San Diego, Calif.). We calculated the percentage of beam breaks in the center zone (16/3″×16/3″) compared to the total as a measure of anxiety-like behavior. Importantly, OFT tests can be administered at several time points to view trends without hindrance by habituation.
Male C57B/6 (2-3 month old; 22-28 g) mice were used in a Middle Cerebral Artery occlusion (MCAo) model. The ischemia duration was 60 mins and the reperfusion was 30 days. […] Vehicle was 1% DMSO in 0.5% methyl cellulose (n=5 Behaviors were measured weekly using methods described above. (n=7).

[3] = test system: Middle Cerebral Artery occlusion (MCAo) model, male C57B/6 mice; assay: Rotarod test (sensorimotor deficit) after MCAo stroke; assay type: in vivo; conditions: 0.5 mg/kg p.o./day for 3 days, first dose 4 hour after stroke; reperfusion 30 days, measured weekly; drug vs vehicle
From the text: as §2
Rotarod test: The rotarod test examines motor coordination in mice. We placed mice on a rotating cylindrical rod accelerating from two to ten rotations per minute, over a span of five minutes. Each subject performed two trials with a 20-minute break between the two trials. We recorded the latency to fall from the rotating rod for each trial (in seconds), and used the mean latency for comparison between groups.
Male C57B/6 (2-3 month old; 22-28 g) mice were used in a Middle Cerebral Artery occlusion (MCAo) model. The ischemia duration was 60 mins and the reperfusion was 30 days. The drug was 5-BDBD- (0.5 mg/kg p.o./day in 1% DMSO and 0.5% methyl cellulose suspension) administered for 3 days. The first dose was given at 4 hour after stroke. Vehicle was 1% DMSO in 0.5% methyl cellulose (n=5 Behaviors were measured weekly using methods described above. (n=7).

[4] = test system: Middle Cerebral Artery occlusion (MCAo) model, male C57B/6 mice; assay: Infarct volume after middle cerebral artery occlusion (MCAo) stroke; assay type: in vivo; conditions: 60 min ischemia, 72 h reperfusion, vs vehicle
From the text: as §1
Cresyl violet staining for infarct volume and tissue atrophy analysis: We measured tissue infarct (day 3) or tissue atrophy (day 30) after stroke as described in the art. Briefly, we sacrificed the mice after stroke surgery with an overdose of Avertin (250 mg/kg intraperitoneally, i.p). After blood collection by cardiac puncture, we performed trans-cardiac perfusion on the mice using cold phosphate buffered saline (PBS) followed by 4% paraformaldehyde. Brains were then fixed overnight and placed in cryoprotectant (30% sucrose in PBS) for 72 hours before processing. We then sliced the brains into 30-μm free-floating sections using a freezing microtome; every eighth slice was mounted and stained with cresyl violet. […]

[5] = Solubility in water/PBS; assay type: physicochemical
[6] = 0.5 mg/kg p.o./day for 3 days, first dose 4 hour after stroke, cresyl violet

Row | SMILES | Neurological deficit score measured after 3 days of stroke ([1]; 0.5 mg/kg p.o./day for 3 days, first dose 4 hour after stroke, 60 min ischemia, vs vehicle) | neurological deficit (ND) score ([1]; oral 0.5 mg/kg daily for 5 days beginning on the day of stroke, MCAo 60 minute followed by reperfusion) | post stroke anxiety (% C/P = % time spent in center/time spent in periphery) ([2]; 0.5 mg/kg p.o./day for 3 days (acute treatment)) | total exploratory activity ([2]; 0.5 mg/kg p.o./day for 3 days, drug vs vehicle) | rotarod test (test for sensorimotor deficit) [3] | cortical infarct volume [4, 6] | hemispheric infarct volume [4, 6] | ND score ([1]; 0.5-5 mg/kg in 1xPBS via Alzet mini osmotic pump (SC) for 3 days, after 3 days of stroke, vs vehicle) | solubility [5] | stroke infarct size ([4]; 0.5-5 mg/kg in 1xPBS via Alzet mini osmotic pump (SC) for 3 days, TTC)
1 | O=C1CN=C(c2cccc(Br)c2)c2oc3ccccc3c2N1 [5-BDBD, 5-(3-Bromophenyl)-1,3-dihydro-2H-Benzofuro[3,2-e]-1,4-diazepin-2-one] | reduces | improved significantly | reduces post stroke anxiety up to a month | similar | overall significant difference | reduces | reduces | – | – | –
2 | O=C1CC(=O)N(c2cccc(-c3noc(=S)[nH]3)c2)c2ccc3ccccc3c2N1 [NP-1815-PX, 5-[3-(5-thioxo-4H-[1,2,4]oxadiazol-3-yl)phenyl]-1H-naphtho[1,2-b][1,4]diazepine-2,4(3H,5H)-dione] | – | – | – | – | – | – | – | improve | Water/PBS Soluble | could reduce
